What all share (assay): MIC determination, isogenic E. coli strains
Common to all, as to type: cell-based

One test deals with E. coli J53 Alone. As to conditions: for Mimimum Inhibitory Concentrations, J53 Alone: CAMH broth, 20 μM Apo-Transferrin, 37° C., 18 hours; for MIC: Escherichia coli, J53ALONE, 18 h, read-out: Mimimum Inhibitory Concentrations, J53 Alone. On the procedure: (§1) Sterile technique was used throughout these experiments. Suspensions of organisms were removed from storage (−80° C.) and partially thawed. Partially thawed organisms (1 μL) were inoculated into 3 mL sterile LB Broth in a sterile culture tube and capped, then cultured at 37° C. with shaking for 4-5 hours until the optical density at 600 nm (OD600) was greater than 0.1 on a single beam spectrophotometer.
(§2) The concentration of organisms was adjusted to 0.08-0.1 OD600 (0.5 McFarland units) by dilution with sterile cation-adjusted Meuller-Hinton (CAMH) broth. The suspensions were used within 30 minutes of preparation.
(§3) A stock solution was made of each test compound by measuring 6.4 mg of the compound on an analytical balance and dissolving it in DMSO (1 mL) to get a transparent solution. The solutions were stored at −20° C. and thawed prior to use.
(§4) Sterile CAMH broth (200 μL) containing 20 μM Apo-Transferrin was pipetted into the first row of 8 columns of a sterile, round-bottomed, transparent, 96-well microplate using an 8-channel pipette equipped with sterile tips. One hundred μL was pipetted into the wells of the remaining 11 rows.
(§5) With an 8-channel pipette equipped with sterile tips, 100 μL of the first row solution was transferred to the second row and mixed. The process was repeated for the second to third rows and continued through row 11. One hundred μL from row 11 was removed and discarded so that all 12 rows contained 100 μL. Row 12 contained no compound and rows 1-11 contained 64, 32, 16, 8, 4, 2, 1, 0.5, 0.25, 0.125, […] of a given compound.
(§6) Inoculant suspensions (0.5 μL) were added to the 12 wells of each column. The plates were then covered and incubated at 37° C. overnight for 18 hours.
(§7) For each organism the MIC was determined by identifying the transparent well with the lowest test compound concentration.
(§8) The gene sequence for each beta-lactamase enzyme was synthesized and inserted into the pBC-SK(+) plasmid by GenScript, a commercial service. E. coli J53 was transformed with each plasmid via electroporation and resistant transformants were selected on agar plates containing 50 micrograms/mL ampicillin. The selected transformants were stored at −80 degrees C. in 20% glycerol.

Test [1] relates to Isogenic E. coli J58 strain carrying DHA-1. As to conditions: for Mimimum Inhibitory Concentrations, DHA-1: isogenic E. coli strain, CAMH broth, 20 μM Apo-Transferrin, 37° C., 18 hours; for MIC: Escherichia coli, 18 h, read-out: Mimimum Inhibitory Concentrations, DHA-1. On the procedure: as §1, §2, §3, §4, §5, §6, §7, §8
Test [2] concerns Isogenic E. coli J58 strain carrying TEM-26. As to conditions: for Mimimum Inhibitory Concentrations, TEM-26: isogenic E. coli strain, CAMH broth, 20 μM Apo-Transferrin, 37° C., 18 hours; for MIC: Escherichia coli, 18 h, read-out: Mimimum Inhibitory Concentrations, TEM-26. The protocol:
as §1, §2, §3, §4, §5, §6, §7
TEM-26 (Group 2be beta-lactamase, hydrolyzes extended spectrum cephalosporins and monobactams), [25];
as §8

Test [3] has as its system Isogenic E. coli J58 strain carrying SHV-1. The following applies: for Mimimum Inhibitory Concentrations, SHV-1: isogenic E. coli strain, CAMH broth, 20 μM Apo-Transferrin, 37° C., 18 hours; for MIC: Escherichia coli, 18 h, read-out: Mimimum Inhibitory Concentrations, SHV-1. The protocol: as §1, §2, §3, §4, §5, §6, §7
SHV-1 (Class A, Group 2b beta-lactamase, hydrolyzes penicillins and early cephalosporins);
as §8

The subject of test [4] is Isogenic E. coli J58 strain carrying CTX-M-14. The following applies: for Mimimum Inhibitory Concentrations, CTX-M-14: isogenic E. coli strain, CAMH broth, 20 μM Apo-Transferrin, 37° C., 18 hours; for MIC: Escherichia coli, 18 h, read-out: Mimimum Inhibitory Concentrations, CTX-M-14. On the procedure: as §1, §2, §3, §4, §5, §6, §7
(§9) CTX-M-14 and CTX-M-15 (Class A, Group 2be beta-lactamases, hydrolyzes extended spectrum cephalosporins and monobactams);
as §8

In test [5] the test system is Isogenic E. coli J58 strain carrying CTX-M-15. As to conditions: for Mimimum Inhibitory Concentrations, CTX-M-15: isogenic E. coli strain, CAMH broth, 20 μM Apo-Transferrin, 37° C., 18 hours; for MIC: Escherichia coli, 18 h, read-out: Mimimum Inhibitory Concentrations, CTX-M-15. On the procedure:
as §1, §2, §3, §4, §5, §6, §7, §9, §8

The test system of test [6] is Isogenic E. coli J58 strain carrying KPC-2. The following applies: for Mimimum Inhibitory Concentrations, KPC-2: isogenic E. coli strain, CAMH broth, 20 μM Apo-Transferrin, 37° C., 18 hours; for MIC: Escherichia coli, 18 h, read-out: Mimimum Inhibitory Concentrations, KPC-2. The protocol:
as §1, §2, §3, §4, §5, §6, §7
(§10) KPC-2 and KPC-3 (Class A, Group 2f, carbapenemases);
as §8

The subject of test [7] is Isogenic E. coli J58 strain carrying KPC-3. The following applies: for Mimimum Inhibitory Concentrations, KPC-3: isogenic E. coli strain, CAMH broth, 20 μM Apo-Transferrin, 37° C., 18 hours; for MIC: Escherichia coli, 18 h, read-out: Mimimum Inhibitory Concentrations, KPC-3. On the procedure: as §1, §2, §3, §4, §5, §6, §7, §10, §8
Test [8] concerns Isogenic E. coli J58 strain carrying NDM-1. The following applies: for Mimimum Inhibitory Concentrations, NDM-1: isogenic E. coli strain, CAMH broth, 20 μM Apo-Transferrin, 37° C., 18 hours; for MIC: Escherichia coli, 18 h, read-out: Mimimum Inhibitory Concentrations, NDM-1. The protocol: as §1, §2, §3, §4, §5, §6, §7
NDM-1 (Group 3a carbapenemase, broad spectrum divalent Zn^++ metallo-Beta-Lactamase);
as §8

Test [9] relates to Isogenic E. coli J58 strain carrying VIM-2. As to conditions: for Mimimum Inhibitory Concentrations, VIM-2: isogenic E. coli strain, CAMH broth, 20 μM Apo-Transferrin, 37° C., 18 hours; for MIC: Escherichia coli, 18 h, read-out: Mimimum Inhibitory Concentrations, VIM-2. On the procedure:
as §1, §2, §3, §4, §5, §6, §7
VIM-2 (Group 3a carbapenemase, metallo-beta-lactamase); and
as §8

The test system of test [10] is Isogenic E. coli J58 strain carrying IMP-1. As to conditions: for Mimimum Inhibitory Concentrations, IMP-1: isogenic E. coli strain, CAMH broth, 20 μM Apo-Transferrin, 37° C., 18 hours; for MIC: Escherichia coli, 18 h, read-out: Mimimum Inhibitory Concentrations, IMP-1. On the procedure: as §1, §2, §3, §4, §5, §6, §7
IMP-1 (Group 3a carbapenemase, metallo-beta-Lactamase).
as §8

SMILES strings stand for the structures.

Take `CC(C)(O/N=C(\C(=O)N[C@@H]1C(=O)N2C(C(=O)O)=C(C=Cc3ccc(C[N+]4(C)CCc5cc(O)c(O)cc5C4)cc3)CS[C@H]12)c1nsc(N)n1)C(=O)O` (mixture of isomers) [Compound 437, 2-(4-((E/Z)-2-((6R,7R)-7-((Z)-2-(5-amino-1,2,4-thiadiazol-3-yl)-2-(((2-carboxypropan-2-yl)oxy)imino)acetamido)-2-carboxy-8-oxo-5-thia-1-azabicyclo[4.2.0]oct-2-en-3-yl)vinyl)benzyl)-6,7-dihydroxy-2-methyl-1,2,3,4-tetrahydroisoquinolin-2-ium]: the “Mimimum Inhibitory Concentrations, J53 Alone” value with E. coli J53 Alone (Table 4-1) and with E. coli J53 Alone (Table 4-2) was 0.25 microgram/mL each time. Moreover, the “Mimimum Inhibitory Concentrations, DHA-1” value in [1] amounted to 0.5 microgram/mL. Further, in test [2], the “Mimimum Inhibitory Concentrations, TEM-26” value is listed as 1 microgram/mL. In [3], the “Mimimum Inhibitory Concentrations, SHV-1” value came out at 2 microgram/mL. The “Mimimum Inhibitory Concentrations, CTX-M-14” value in [4] was 4 microgram/mL. Also, the “Mimimum Inhibitory Concentrations, CTX-M-15” value in test [5] was found to be 0.5 microgram/mL. Further, the “Mimimum Inhibitory Concentrations, KPC-2” value in test [6] stood at 16 microgram/mL. For the same molecule, in [7], the “Mimimum Inhibitory Concentrations, KPC-3” value was 2 microgram/mL. The “Mimimum Inhibitory Concentrations, NDM-1” value in test [8] is on record as above 64 microgram/mL. Also, in [9], the “Mimimum Inhibitory Concentrations, VIM-2” value was determined as 1 microgram/mL. In addition, in [10], the “Mimimum Inhibitory Concentrations, IMP-1” value is 0.13 microgram/mL. Further, the “MICs for an E. coli strain carrying the gene for carbapenemase IMP-1, in words” value in test [10] (review of Tables 4-1 and 4-2) is “low microgram/mL MICs”.

As to `CC(C)(O/N=C(\C(=O)N[C@@H]1C(=O)N2C(C(=O)O)=C(C=Cc3ccc(C[N+]4(C)CCc5c(ccc(O)c5O)C4)cc3)CS[C@H]12)c1csc(N)n1)C(=O)O` (mixture of isomers) [Compound 441, 2-(4-((E/Z)-2-((6R,7R)-7-((Z)-2-(2-aminothiazol-4-yl)-2-(((2-carboxypropan-2-yl)oxy)imino)acetamido)-2-carboxy-8-oxo-5-thia-1-azabicyclo[4.2.0]oct-2-en-3-yl)vinyl)benzyl)-5,6-dihydroxy-2-methyl-1,2,3,4-tetrahydroisoquinolin-2-ium], the MIC amounted to 0.25 µg/mL in the test on E. coli J53 Alone; 0.5 µg/mL in [1]; 1 µg/mL in [2]; 1 µg/mL in test [3]; 1 µg/mL in test [4]; 0.5 µg/mL in test [5]. Besides, the MIC in [6] was 4 µg/mL; in test [7] it was 1 µg/mL; in test [8], above 64 µg/mL; in test [9], 0.25 µg/mL; in [10], 1 µg/mL. Besides, the “Mimimum Inhibitory Concentrations, J53 Alone” value in the test on E. coli J53 Alone (Table 4-2) is given as 0.25 microgram/mL.

Regarding `Cn1c[n+](Cc2ccc(C=CC3=C(C(=O)O)N4C(=O)[C@@H](NC(=O)/C(=N\OC(C)(C)C(=O)O)c5csc(N)n5)[C@H]4SC3)cc2)c2cc(O)c(O)cc21` (mixture of isomers) [Compound 415, 3-(4-((E/Z)-2-((6R,7R)-7-((Z)-2-(2-aminothiazol-4-yl)-2-(((2-carboxypropan-2-yl)oxy)imino)acetamido)-2-carboxy-8-oxo-5-thia-1-azabicyclo[4.2.0]oct-2-en-3-yl)vinyl)benzyl)-5,6-dihydroxy-1-methyl-1H-benzo[d]imidazol-3-ium], the MIC turned out to be 0.5 µg/mL with E. coli J53 Alone; 0.5 µg/mL in test [1]; 1 µg/mL in [2]; 1 µg/mL in [3]; 2 µg/mL in [4]; 1 µg/mL in test [5]. The MIC in [6] is 16 µg/mL; in [7], 8 µg/mL; in test [8], above 64 µg/mL; in test [9], 1 µg/mL; in test [10] it was 16 µg/mL. Moreover, the “Mimimum Inhibitory Concentrations, J53 Alone” value in the test with E. coli J53 Alone (Table 4-2) is 0.5 microgram/mL.

For `COc1cc[n+](Cc2ccc(C=CC3=C(C(=O)O)N4C(=O)[C@@H](NC(=O)/C(=N\OC(C)(C)C(=O)O)c5csc(N)n5)[C@H]4SC3)cc2)cc1OC` (mixture of isomers) [Compound 402, 1-(4-((E/Z)-2-((6R,7R)-7-((Z)-2-(2-aminothiazol-4-yl)-2-(((2-carboxypropan-2-yl)oxy)imino)acetamido)-2-carboxy-8-oxo-5-thia-1-azabicyclo[4.2.0]oct-2-en-3-yl)vinyl)benzyl)-3,4-dimethoxypyridin-1-ium], the MIC with E. coli J53 Alone was 0.5 µg/mL; in test [1] it was 1 µg/mL; in [2] it was 4 µg/mL; in [3] it was 2 µg/mL; in test [4], 4 µg/mL; in [5], above 64 µg/mL. Also, the MIC in [6] was 64 µg/mL; in test [7] it was 16 µg/mL; in test [8] it was above 64 µg/mL; in [9], 4 µg/mL; in test [10], above 64 µg/mL. The “Mimimum Inhibitory Concentrations, J53 Alone” value in the test with E. coli J53 Alone (Table 4-2) amounted to 0.5 microgram/mL.

Turning to `CC(C)(O/N=C(\C(=O)N[C@@H]1C(=O)N2C(C(=O)O)=C(C=Cc3ccc(C[n+]4ccc(O)c(O)c4)cc3)CS[C@H]12)c1csc(N)n1)C(=O)O` (mixture of isomers) [Compound 443, 1-(4-((E/Z)-2-((6R,7R)-7-((Z)-2-(2-aminothiazol-4-yl)-2-(((2-carboxypropan-2-yl)oxy)imino)acetamido)-2-carboxy-8-oxo-5-thia-1-azabicyclo[4.2.0]oct-2-en-3-yl)vinyl)benzyl)-3,4-dihydroxypyridin-1-ium], the “Mimimum Inhibitory Concentrations, J53 Alone” value in the test with E. coli J53 Alone (Table 4-1) and with E. coli J53 Alone (Table 4-2) was 0.13 microgram/mL each time. Besides, the “Mimimum Inhibitory Concentrations, DHA-1” value in test [1] was 1 microgram/mL. For the same molecule, the “Mimimum Inhibitory Concentrations, TEM-26” value in test [2] came out at 2 microgram/mL. Also, the “Mimimum Inhibitory Concentrations, SHV-1” value in test [3] is given as 1 microgram/mL. In addition, the “Mimimum Inhibitory Concentrations, CTX-M-14” value in test [4] turned out to be 0.25 microgram/mL. Further, the “Mimimum Inhibitory Concentrations, CTX-M-15” value in [5] was 1 microgram/mL. The “Mimimum Inhibitory Concentrations, KPC-2” value in [6] is 8 microgram/mL. The “Mimimum Inhibitory Concentrations, KPC-3” value in test [7] came to 4 microgram/mL. The “Mimimum Inhibitory Concentrations, NDM-1” value in test [8] is recorded as above 64 microgram/mL. Moreover, the “Mimimum Inhibitory Concentrations, VIM-2” value in test [9] is on record as 0.25 microgram/mL. In test [10], the “Mimimum Inhibitory Concentrations, IMP-1” value came out at 4 microgram/mL.

The record behind these values is patent publication US20190100534A1, “Cephem Compounds with Latent Reactive Groups” (Gladius Pharmaceuticals, Inc., priority 2017, published 2019).
